Test results from US20150284362A1, “CARBAZOLE-CONTAINING AMIDES, CARBAMATES, AND UREAS AS CRYPTOCHROME MODULATORS” (ReSet Therapeutics, Inc., priority 2014, published 2015).

Columns and labels:
[1] = tested on: core clock and gluconeogenic gene mRNAs in liver; test: 24 hour gene expression study, liver mRNA by RT-qPCR, C57Bl/6J DIO mice; type: in vivo, mouse; details: 50 mg/kg PO BID, 5 doses
Source text: Male C57Bl/6J DIO mice were purchased at 17 weeks of age (The Jackson Laboratory, Sacramento, Calif.) and acclimated for a 2 week period before being used for the experiment. Overall group size was 15 per treatment, divided into 5 time-points to give a final group size of 3 mice.
In total, each mouse received 5 doses of compound over the course of the experiment. Mice were weighed and randomly assigned to each treatment based on weight the evening before the commencement of the study. Beginning on Day 3 at 3:00 PM, a group of animals from the vehicle and Compound 72-treated groups were euthanized using CO2 asphyxiation, 50 mg of liver, epididymal fat, and skeletal muscle, respectively, were excised and placed in tube containing 500 μl of RNALater. This procedure took place for the remainder of the time-point groups at their given harvest times. Plasma samples were also taken for each animal and frozen, to be used for later measurement of compound levels.
E.Z.N.A.® HP Total RNA Isolation Kits (R6812-01 and the protocol described in the Manual, Revised 2010) were utilized to prepare and isolate RNA from the liver samples. To prepare the RNA samples, 10-30 mg of sample was removed from RNA-Later and placed in a 1.5 ml microfuge tube. GTC lysis buffer (700 μl) was added to the tissue, which was homogenized with a rotor-stator homogenizer (e.g. Tissue-Tearor, Model #985370 BioSpec Products with 4.5 mm probe, Cat. #985370-04), and then centrifuged at full speed (≧13,000×g) for 5 minutes. The cleared supernatant was transferred by pipetting to a DNA Clearance Column Pre-inserted in a 2 mL Collection Tube. The assembled column was centrifuged at 13,000×g for 1 minute, and the flow-through was saved. An equal volume (700 μl) of 70% ethanol was added to the lysate and mixed. The sample was then applied to a HiBind RNA spin column placed into a 2 ml collection tube, which was centrifuged at 10,000×g for 60 seconds at room temperature. RNA Wash Buffer I (250 μl) was added by pipetting directly onto a new HiBind RNA column inserted in a 2 ml collection tube. The assembled column was centrifuged at 10,000×g for 60 seconds. The RNA column was placed into a new 2 ml collection tube. DNase I stock solution is pipetted (75 μl) directly onto the surface of the HiBind RNA resin in each column (Using DNAse Digestion with RNase Free DNase Set (E1091): for each HiBind RNA column, the DNase I stock solution was prepared as followed: E.Z.N.A.® DNase I Digestion Buffer 73.5 μl, RNase Free DNase I (20 Kunitz/μl) 1.5 μl=Total Volume 75 μl.). The column with bound RNA was incubated at room temperature (25-30° C.) for 15 minutes. RNA Wash Buffer I (500 μl) was added to the column and placed on a bench top for 2 minutes. After centrifuging at 10,000×g for 60 seconds, discarding the flow-through, 500 μl of RNA Wash Buffer II was added and centrifuged at 10,000×g for 60 seconds. Another 500 μl of RNA Wash Buffer II was added and the column assembly was centrifuged at 10,000×g for 60 seconds. The column was centrifuged for 2 minutes at maximum speed to completely dry the HiBind matrix. The column was placed in a clean 1.5 ml microcentrifuge tube and 40-70 μl of molecular biology grade water is added. […]
RediPlate 96 RiboGreen RNA Quantification Kit (Invitrogen) RediPlate standard curve was prepared by transferring 20 μl reconstituted RNA standard to a RediPlate well reconstituted in 180 μl RediPlate TE buffer. […]

db/db mice [2] = test: Single dose at peak or nadir of clock gene expression, OGTT in db/db mouse model of type II diabetes; type: in vivo; details: single dose 50 mg/kg PO at peak (ZT0) of Cry1 and Bmal1 expression
Source text: Mice were split into two study arms, to be dosed at either the peak or nadir of Cry1 and Bmal1 gene expression. […] Mice dosed at ZT10 were fasted beginning at 8:30 am in the same manner.
(§1) Significance was accepted when p<0.05.

db/db mice [3] = test: Increasing dosages of Compound 72 over 7 days in db/db mouse model of type II diabetes; type: in vivo; details: 10, 50, 100 mg/kg PO QD 7 days
Source text: as §1

C57/Bl6J DIO mice = test: 7 day dosing in diet-induced obesity (DIO) mouse model of type II diabetes; type: in vivo; details: 100 mg/kg PO QD 7 days
Source text: Male C57/Bl6J DIO mice were obtained from The Jackson Laboratory (Sacramento, Calif.). […] Animals were accustomed to these conditions for at least 2 weeks before experimentation and used at approximately 24 weeks of age.
as §1

[4] = Pharmacokinetic analysis in ICR mice (plasma and liver); type: in vivo; details: male, plasma, po, mouse, 50 mg/kg P.O., Table 4, read-out: Total Plasma AUC, AUC (0-last)
Procedure: Male ICR mice (weighing 30-40 g, Charles River Laboratories) were used for the experiment with n=3 mice for each experimental group (27 mice total for the study). […] Blood and liver tissue were collected at the following time points after administration: 15, 30, 60, 90 minutes, 3, 6, 12 and 24 hours. A control group of animals (TO) was also sampled. Animals were euthanized with CO2 and the blood collected from the heart using cardiac puncture, transferred to an EDTA tube, and then centrifuged at 5400 rpm for 5 minutes at 4° C. The resultant plasma was frozen using dry ice and then stored at −80° C. until ready for assay. Liver tissue was removed from each animal, 0.5 g was collected in an eppendorff, frozen and submitted for pharmacokinetic measurement.

[5] = Pharmacokinetic analysis in SD rats (plasma); type: in vivo; details: male, po, rat, 50 mg/kg P.O., Table 4, read-out: Total Plasma AUC, AUC (0-last)
Procedure: Male SD rats (weighing 250-300 g, Charles River Laboratories) were used for the experiment with n=4 rats for each experimental group. […] Blood was collected at the following time points after administration: 15, 30, 60, 90 minutes, 3, 6, 12 and 24 hours. A pre-dose sample was also collected. Animals were cannulated by technical staff at Charles River, prior to delivery at Reset. Whole blood (0.3 ml) was collected from a cannula in the right common jugular vein at each time-point. The whole blood was transferred to an EDTA tube, and then centrifuged at 5400 rpm for 5 minutes at 4° C. The resultant plasma was frozen using dry ice and then stored at −80° C. until ready for assay. 0.9% Sodium Chloride (0.3 ml) was administered for fluid replenishment after each blood draw. 0.1 ml of Sodium Heparin (500 IU/ml) was used as a lock solution after the 12 hr time-point. Samples were assayed as described above.

AUC(0-t) [4]: 4160 ng·h/mL
AUC(0-t) [5]: 57900 ng·h/mL
SMILES: O=C1NCCN1CC(O)Cn1c2ccc(F)cc2c2cc(F)ccc21 (stereo not shown) [Compound 72, 1-(3-(3,6-difluoro-9H-carbazol-9-yl)-2-hydroxypropyl)imidazolidin-2-one]
Bmal1 mRNA in liver ([1]; at ZT8 and 32 hours after ZT0 vs vehicle): substantially increased
Per2 mRNA in liver ([1]; over 24 hours vs vehicle): suppressed
Cry1 mRNA in liver ([1]; vs vehicle): suppressed during its peak of expression during the dark period
Cry2 mRNA in liver (daytime peak) ([1]; vs vehicle): strongly attenuated
circadian pattern of mRNAs for gluconeogenic genes Pck1 and G6Pc in liver ([1]; vs vehicle): substantially altered
effect on OGTT measurement (db/db mice [2]): apparent effect
OGTT glucose excursion following a glucose load (db/db mice [3]): dose dependent effect on glucose excursion
OGTT glucose vs vehicle control group (C57/Bl6J DIO mice): much lower than the vehicle control group
